Where “and” joins values, the source holds several entries; their conditions need not be identical. Equal values may be shown once. Inconclusive results and toxic doses are left out.

This experiment relates to P388 leukemia ip, CD2F1 mice, survival T/C. The experiment in a line: NCI In Vivo Anticancer Drug Screen. Data for tumor model P388 Leukemia (intraperitoneal) in CD2F1 (CDF1) mice. As to conditions: endpoint: median survival time, higher = longer survival. The method in brief: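 Mice carrying the transplanted tumor received test compound or vehicle. Survival was recorded in each group, and the value is the treated-group measurement divided by that of the vehicle-treated control group.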

Setting [1] is: dose: 50.0 mg/kg/injection, schedule: Q01DX009 (ip), vehicle: saline with Tween-80.
The mark [2] stands for this setting: dose: 60.0 mg/kg/injection, schedule: Q01DX005 (ip), vehicle: saline with Tween-80.
[3] abbreviates: dose: 120.0 mg/kg/injection, schedule: Q01DX005 (ip), vehicle: saline with Tween-80.
The mark [4] stands for this setting: dose: 240.0 mg/kg/injection, schedule: Q01DX005 (ip), vehicle: saline with Tween-80.
The mark [5] stands for this setting: dose: 100.0 mg/kg/injection, schedule: Q01DX009 (ip), vehicle: saline with Tween-80.
The mark [6] stands for this setting: dose: 200.0 mg/kg/injection, schedule: Q01DX009 (ip), vehicle: saline with Tween-80.
Where [7] appears, read: dose: 15.0 mg/kg/injection, schedule: Q01DX005 (ip), vehicle: saline with Tween-80.
Where [8] appears, read: dose: 30.0 mg/kg/injection, schedule: Q01DX005 (ip), vehicle: saline with Tween-80.
Where [9] appears, read: dose: 200.0 mg/kg/injection, schedule: Q04DX003 (ip), vehicle: saline with Tween-80.
Setting [10] is: dose: 100.0 mg/kg/injection, schedule: Q04DX002 (ip), vehicle: saline with Tween-80.

For the compound `CC[CH2][Sn]([F])([F])[CH2]CC`, the T/C (dose: 0.78 mg/kg/injection, schedule: Q04DX003 (ip), vehicle: saline) was 105 % of control; the T/C (dose: 1.56 mg/kg/injection, schedule: Q04DX003 (ip), vehicle: saline) was 100 % of control and 114 % of control; the T/C (dose: 3.12 mg/kg/injection, schedule: Q04DX003 (ip), vehicle: saline) was 102 % of control; the T/C (dose: 6.25 mg/kg/injection, schedule: Q04DX003 (ip), vehicle: saline) was 105 % of control; the T/C (dose: 12.5 mg/kg/injection, schedule: Q04DX003 (ip), vehicle: saline) is 114 % of control.
Regarding `Cc1ccc(OCC(COc2ccc(C)cc2)(COc2ccc(C)cc2)COc2ccc(C)cc2)cc1`, the T/C by setting is: (dose: 12.5 mg/kg/injection, schedule: Q01DX009 (ip), vehicle: saline with Tween-80) 86 % of control; (dose: 25.0 mg/kg/injection, schedule: Q01DX009 (ip), vehicle: saline with Tween-80) 86 % of control; under setting [1], 86 % of control.
With `C/C(=N\NC1=NCCN1)c1cnn(C2=NCCN2)c1C`, the T/C (dose: 60.0 mg/kg/injection, schedule: Q01DX005 (ip), vehicle: saline) is 116 % of control; the T/C (dose: 120.0 mg/kg/injection, schedule: Q01DX005 (ip), vehicle: saline) is 108 % of control; the T/C (dose: 240.0 mg/kg/injection, schedule: Q01DX005 (ip), vehicle: saline) was 118 % of control.
On to `COc1cccc2c1C(=O)c1c(O)c3c(c(O)c1C2=O)C[C@@](O)(C(C)O)C[C@@H]3OC1CC(N2CCOCC2)C(O)C(C)O1` (stereo not given in full), for which the T/C (dose: 25.0 micrograms/kg/injection, schedule: Q04DX003 (ip), vehicle: water) is 101 % of control; the T/C (dose: 50.0 micrograms/kg/injection, schedule: Q04DX003 (ip), vehicle: water) was 97 % of control; the T/C (dose: 100.0 micrograms/kg/injection, schedule: Q04DX003 (ip), vehicle: water) was 100 % of control and 118 % of control.
As for `Cc1c(COC(=O)NC2CCCCC2)c(COC(=O)NC2CCCCC2)c2n1CCc1ccccc1-2`, the T/C reads like this: (dose: 12.5 mg/kg/injection, schedule: Q01DX009 (ip), vehicle: distilled water + Tween-80) 178 % of control; (dose: 25.0 mg/kg/injection, schedule: Q01DX009 (ip), vehicle: distilled water + Tween-80) 182 % of control; (dose: 50.0 mg/kg/injection, schedule: Q01DX009 (ip), vehicle: distilled water + Tween-80) 101 % of control.
With `CC(=O)OCc1c(C)[nH]c2ccc(N(C)C)cc2c1=O`, the T/C runs as follows: under setting [2], 88 % of control; under setting [3], 103 % of control; under setting [4], 111 % of control.
Take `C1CCC2(CC1)CSSC2`: the T/C is, setting by setting: (dose: 6.25 mg/kg/injection, schedule: Q04DX002 (ip), vehicle: saline with Tween-80) 101 % of control; (dose: 12.5 mg/kg/injection, schedule: Q04DX002 (ip), vehicle: saline with Tween-80) 99 % of control.
Regarding `O=C(Nc1ccccc1)Oc1ccc(/C=N/Sc2cccc([N+](=O)[O-])c2)cc1`, the T/C under setting [1] was 87 % of control, the T/C under setting [5] was 101 % of control and the T/C under setting [6] is 106 % of control.
As for `C=C(C)C(=O)OC1CC2(C)OC2CCC2(C)OC2C2OC(=O)C(=C)C12` (stereo not given), the T/C (dose: 10.0 mg/kg/injection, schedule: Q01DX005 (ip), vehicle: Klucel (hydroxypropylcellulose) (HPC)) was 108 % of control; the T/C (dose: 20.0 mg/kg/injection, schedule: Q01DX005 (ip), vehicle: Klucel (hydroxypropylcellulose) (HPC)) was 106 % of control; the T/C (dose: 40.0 mg/kg/injection, schedule: Q01DX005 (ip), vehicle: Klucel (hydroxypropylcellulose) (HPC)) was 100 % of control.
In the case of `CCCCCCCC(=O)c1c(O)c2ccccc2oc1=O`, the T/C under setting [7] was 102 % of control; the T/C under setting [8] is 105 % of control; the T/C under setting [2] was 103 % of control and 96 % of control.
Consider `CN1CC[C@]23c4c5ccc(O)c4OC2C(O)C=C[C@H]3[C@H]1C5` (stereo not given in full), for which the T/C is, setting by setting: (dose: 100.0 mg/kg/injection, schedule: Q01DX001 (ip), vehicle: Klucel (hydroxypropylcellulose) (HPC)) 103 % of control; (dose: 200.0 mg/kg/injection, schedule: Q01DX001 (ip), vehicle: Klucel (hydroxypropylcellulose) (HPC)) 100 % of control; (dose: 400.0 mg/kg/injection, schedule: Q01DX001 (ip), vehicle: Klucel (hydroxypropylcellulose) (HPC)) 110 % of control.
In the case of `COC1=CC(=Nc2cc(Br)c(O)c(Br)c2)C=CC1=O`, the T/C reads like this: (dose: 6.25 mg/kg/injection, schedule: Q01DX005 (ip), vehicle: saline) 105 % of control; (dose: 12.5 mg/kg/injection, schedule: Q01DX005 (ip), vehicle: saline) 108 % of control; (dose: 25.0 mg/kg/injection, schedule: Q01DX005 (ip), vehicle: saline) 100 % of control; (dose: 50.0 mg/kg/injection, schedule: Q01DX005 (ip), vehicle: saline with Tween-80) 95 % of control.
On to `CCCC(C#N)(CCCl)c1ccccc1` (stereo not given), for which the T/C runs as follows: (dose: 100.0 mg/kg/injection, schedule: Q04DX003 (ip), vehicle: saline with Tween-80) 100 % of control; under setting [9], 104 % of control; (dose: 400.0 mg/kg/injection, schedule: Q04DX003 (ip), vehicle: saline with Tween-80) 95 % of control.
Turning to `O=C1C2C(C(=O)N1c1ccccc1)C1(c3cccnc3)NC(=O)C2(Cc2cccnc2)c2ccccc21` (stereo not given), the T/C by setting is: under setting [7], 104 % of control; under setting [8], 100 % of control and 96 % of control; under setting [2], 104 % of control and 88 % of control and 91 % of control; under setting [3], 88 % of control; under setting [4], 86 % of control.
Consider `Oc1c(-c2ccccc2)nc2ccccn12`, for which the T/C (dose: 60.0 mg/kg/injection, schedule: Q01DX005 (ip), vehicle: Klucel (hydroxypropylcellulose) (HPC)) was 94 % of control; the T/C (dose: 120.0 mg/kg/injection, schedule: Q01DX005 (ip), vehicle: Klucel (hydroxypropylcellulose) (HPC)) is 96 % of control; the T/C (dose: 240.0 mg/kg/injection, schedule: Q01DX005 (ip), vehicle: Klucel (hydroxypropylcellulose) (HPC)) was 107 % of control.
For the compound `CCN(CC(O)CN(CC1CO1)c1ccccc1)c1ccccc1` (stereo not given), the T/C by setting is: under setting [10], 100 % of control; (dose: 200.0 mg/kg/injection, schedule: Q04DX002 (ip), vehicle: saline with Tween-80) 94 % of control; (dose: 400.0 mg/kg/injection, schedule: Q04DX002 (ip), vehicle: saline with Tween-80) 101 % of control.
On to `NC(=O)c1cccnc1`, for which the T/C under setting [1] is 106 % of control; the T/C under setting [5] was 110 % of control; the T/C under setting [6] was 97 % of control; the T/C (dose: 250.0 mg/kg/injection, schedule: Q01DX009 (sc), vehicle: saline) was 102 % of control; the T/C (dose: 500.0 mg/kg/injection, schedule: Q01DX009 (sc), vehicle: saline) was 105 % of control.
Take `CNC(=S)N/N=C/c1nccc(-c2ccccc2)c1C`: the T/C under setting [9] is 107 % of control.
For `Cc1nc(O)c(-c2ccc(Cl)cc2)s1`, the T/C was 102 % of control under setting [1], 103 % of control under setting [5] and 101 % of control under setting [6].
For `NCC(O)COCc1ccccc1` (stereo not given), the T/C is, setting by setting: (dose: 50.0 mg/kg/injection, schedule: Q04DX002 (ip), vehicle: saline with Tween-80) 100 % of control; (dose: 100.0 mg/kg/injection, schedule: Q01DX001 (ip), vehicle: saline with Tween-80) 90 % of control; under setting [10], 100 % of control.
As for `Cc1ccccc1[B-]12OCC[N+]1(CNC(=O)c1ccccc1O)CCO2` (stereo not given), the T/C by setting is: (dose: 50.0 mg/kg/injection, schedule: Q01DX005 (ip), vehicle: Klucel (hydroxypropylcellulose) (HPC)) 106 % of control; (dose: 100.0 mg/kg/injection, schedule: Q01DX005 (ip), vehicle: Klucel (hydroxypropylcellulose) (HPC)) 105 % of control; (dose: 200.0 mg/kg/injection, schedule: Q01DX005 (ip), vehicle: Klucel (hydroxypropylcellulose) (HPC)) 105 % of control.
`COc1ccc2c3c(cccc13)-c1ccccc1C2=O`: the T/C runs as follows: (dose: 6.25 mg/kg/injection, schedule: Q01DX005 (ip), vehicle: saline with Tween-80) 95 % of control; (dose: 12.5 mg/kg/injection, schedule: Q01DX005 (ip), vehicle: saline with Tween-80) 91 % of control; (dose: 25.0 mg/kg/injection, schedule: Q01DX005 (ip), vehicle: saline with Tween-80) 93 % of control.

The record behind these values is PubChem BioAssay AID330 (DTP/NCI, 2004).
